# From patent publication US20050004134A1, “Thiazole derivative and pharmaceutical use thereof” (priority 2001, published 2005)
row,Structure (SMILES),melting point [°C]
1,"CC(C)n1nc(-c2sc(NC(=O)c3ccc(C(F)(F)F)cc3)nc2-c2ccccc2)ccc1=O [Example 39, N-[5-(1-Isopropyl-6-oxo-1,6-dihydro-3-pyridazinyl)-4-phenyl-1,3-thiazol-2-yl]-4-(trifluoromethyl)benzamide]",162 to 167
2,"CC(C)n1nc(-c2sc(NC(=O)c3ccccc3C(F)(F)F)nc2-c2ccccc2)ccc1=O [Example 40, N-[5-(1-Isopropyl-6-oxo-1,6-dihydro-3-pyridazinyl)-4-phenyl-1,3-thiazol-2-yl]-2-(trifluoromethyl)benzamide]",219 to 220
3,"COc1ccccc1C(=O)Nc1nc(-c2ccccc2)c(-c2ccc(=O)n(C(C)C)n2)s1 [Example 41, N-[5-(1-Isopropyl-6-oxo-1,6-dihydro-3-pyridazinyl)-4-phenyl-1,3-thiazol-2-yl]-2-methoxybenzamide]",> 250
4,"Cc1cccc(C(=O)Nc2nc(-c3ccccc3)c(-c3ccc(=O)n(C(C)C)n3)s2)c1 [Example 42, N-[5-(1-Isopropyl-6-oxo-1,6-dihydro-3-pyridazinyl)-4-phenyl-1,3-thiazol-2-yl]-3-methylbenzamide]",198 to 199
5,"CC(C)n1nc(-c2sc(NC(=O)c3cc(C(F)(F)F)cc(C(F)(F)F)c3)nc2-c2ccccc2)ccc1=O [Example 44, N-[5-(1-Isopropyl-6-oxo-1,6-dihydro-3-pyridazinyl)-4-phenyl-1,3-thiazol-2-yl]-3,5-bis(trifluoromethyl)benzamide]",207 to 208
6,"COc1ccc(C(=O)Nc2nc(-c3ccccc3)c(-c3ccc(=O)n(C(C)C)n3)s2)cc1 [Example 45, N-[5-(1-Isopropyl-6-oxo-1,6-dihydro-3-pyridazinyl)-4-phenyl-1,3-thiazol-2-yl]-4-methoxybenzamide]",219 to 221
7,"CC(C)n1nc(-c2sc(NC(=O)c3ccccc3Cl)nc2-c2ccccc2)ccc1=O [Example 46, 2-Chloro-N-[5-(1-isopropyl-6-oxo-1,6-dihydro-3-pyridazinyl)-4-phenyl-1,3-thiazol-2-yl]benzamide]",220 to 221
8,"CC(C)n1nc(-c2sc(NC(=O)c3ccc(Cl)cc3)nc2-c2ccccc2)ccc1=O [Example 47, 4-Chloro-N-[5-(1-isopropyl-6-oxo-1,6-dihydro-3-pyridazinyl)-4-phenyl-1,3-thiazol-2-yl]benzamide]",205 to 206
9,"CC(C)n1nc(-c2sc(NC(=O)c3ccc(F)cc3)nc2-c2ccccc2)ccc1=O [Example 48, 4-fluoro-N-[5-(1-isopropyl-6-oxo-1,6-dihydro-3-pyridazinyl)-4-phenyl-1,3-thiazol-2-yl]benzamide]",225 to 226
10,"CC(C)n1nc(-c2sc(NC(=O)c3c(Cl)cccc3Cl)nc2-c2ccccc2)ccc1=O [Example 49, 2,6-Dichloro-N-[5-(1-isopropyl-6-oxo-1,6-dihydro-3-pyridazinyl)-4-phenyl-1,3-thiazol-2-yl]benzamide]",248 to 249
11,"CC(C)n1nc(-c2sc(NC(=O)N(C)C)nc2-c2ccccc2)ccc1=O [Example 50, N′-[5-(1-Isopropyl-6-oxo-1,6-dihydro-3-pyridazinyl)-4-phenyl-1,3-thiazol-2-yl]-N,N-dimethylurea]",199 to 200
12,"CC(C)n1nc(-c2sc(NC(=O)c3ccc(I)cc3)nc2-c2ccccc2)ccc1=O [Example 51, 4-Iodo-N-[5-(1-isopropyl-6-oxo-1,6-dihydro-3-pyridazinyl)-4-phenyl-1,3-thiazol-2-yl]benzamide]",253 to 254
13,"CC(C)n1nc(-c2sc(NC(=O)N3CCCCC3)nc2-c2ccccc2)ccc1=O [Example 52, N-[5-(1-Isopropyl-6-oxo-1,6-dihydro-3-pyridazinyl)-4-phenyl-1,3-thiazol-2-yl]-1-piperidinecarboxamide]",138 to 140
14,"CC(C)n1nc(-c2sc(NC(=O)c3ccccc3OC(F)(F)F)nc2-c2ccccc2)ccc1=O [Example 53, N-[5-(1-Isopropyl-6-oxo-1,6-dihydro-3-pyridazinyl)-4-phenyl-1,3-thiazol-2-yl]-2-(trifluoromethoxy)benzamide]",212 to 213
15,"CC(C)n1nc(-c2sc(NC(=O)c3ccc(CCl)cc3)nc2-c2ccccc2)ccc1=O [Example 56, 4-(Chloromethyl)-N-[5-(1-isopropyl-6-oxo-1,6-dihydro-3-pyridazinyl)-4-phenyl-1,3-thiazol-2-yl]benzamide]",> 250
16,"CC(C)n1nc(-c2sc(NC(=O)C3CC3)nc2-c2ccc(F)cc2)ccc1=O [Example 57, N-[4-(4-Fluorophenyl)-5-(1-isopropyl-6-oxo-1,6-dihydro-3-pyridazinyl)-1,3-thiazol-2-yl]cyclopropanecarboxamide]",250 to 252
17,"CC(C)CC(=O)Nc1nc(-c2ccccc2)c(-c2ccc(=O)n(C(C)C)n2)s1 [Example 58, N-[5-(1-Isopropyl-6-oxo-1,6-dihydro-3-pyridazinyl)-4-phenyl-1,3-thiazol-2-yl]-3-methylbutanamide]",198 to 199
18,"CC(C)n1nc(-c2sc(NC(C)(C)C)nc2-c2ccccc2)ccc1=O [Example 61, 6-[2-(tert-Butylamino)-4-phenyl-1,3-thiazol-5-yl]-2-isopropyl-3(2H)-pyridazinone]",189 to 190
19,"CCNc1nc(-c2ccccc2)c(-c2ccc(=O)n(C(C)C)n2)s1 [Example 62, 6-[2-(Ethylamino)-4-phenyl-1,3-thiazol-5-yl]-2-isopropyl-3(2H)-pyridazinone]",167 to 169

row,Structure (SMILES),melting point [°C]
1,"CC(C)n1nc(-c2sc(NC(=N)N)nc2-c2ccccc2)ccc1=O [Example 63, N-[5-(1-Isopropyl-6-oxo-1,6-dihydro-3-pyridazinyl)-4-phenyl-1,3-thiazol-2-yl]guanidine]",> 250
2,"CC(C)Nc1nc(-c2ccccc2)c(-c2ccc(=O)n(C(C)C)n2)s1 [Example 64, 2-Isopropyl-6-[2-(isopropylamino)-4-phenyl-1,3-thiazol-5-yl]-3(2H)-pyridazinone]",138 to 139
3,"CC(C)n1nc(-c2sc(NCc3ccccc3)nc2-c2ccccc2)ccc1=O [Example 65, 6-[2-(Benzylamino)-4-phenyl-1,3-thiazol-5-yl]-2-isopropyl-3 (2H)-pyridazinone]",157 to 158
4,"CC(C)n1nc(-c2sc(NCc3ccco3)nc2-c2ccccc2)ccc1=O [Example 66, 6-{2-[(2-Furylmethyl)amino]-4-phenyl-1,3-thiazol-5-yl}-2-isopropyl-3(2H)-pyridazinone]",115 to 116
5,"CC(C)n1nc(-c2sc(Nc3ccccn3)nc2-c2ccccc2)ccc1=O [Example 67, 2-Isopropyl-6-[4-phenyl-2-(2-pyridinylamino)-1,3-thiazol-5-yl]-3(2H)-pyridazinone]",194 to 195
6,"CC(C)n1nc(-c2sc(NCCCN3CCOCC3)nc2-c2ccccc2)ccc1=O [Example 68, 2-I sopropyl-6-(2-{[3-(4-morpholinyl)propyl]amino}-4-phenyl-1,3-thiazol-5-yl)-3(2H)-pyridazinone]",194 to 195
7,"CC(C)n1nc(-c2sc(NC3CCCCC3)nc2-c2ccccc2)ccc1=O [Example 70, 6-[2-(Cyclohexylamino)-4-phenyl-1,3-thiazol-5-yl]-2-isopropyl-3(2H)-pyridazinone]",149 to 151
8,"CC(C)n1nc(-c2sc(Nc3cccc4ccccc34)nc2-c2ccccc2)ccc1=O [Example 72, 2-Isopropyl-6-[2-(1-naphthylamino)-4-phenyl-1,3-thiazol-5-yl]-3(2H)-pyridazinone]",239 to 240
9,"CCCNc1nc(-c2ccccc2)c(-c2ccc(=O)n(C(C)C)n2)s1 [Example 73, 2-Isopropyl-6-[4-phenyl-2-(propylamino)-1,3-thiazol-5-yl]-3(2H)-pyridazinone]",165 to 166
10,"CC(C)n1nc(-c2sc(NCCN3CCCCC3)nc2-c2ccccc2)ccc1=O [Example 74, 2-Isopropyl-6-(4-phenyl-2-{[2-(1-piperidinyl)ethyl]amino}-1,3-thiazol-5-yl)-3(2H)-pyridazinone]",165 to 166
11,"CC(C)n1nc(-c2sc(NC=O)nc2-c2ccc(F)cc2)ccc1=O [Example 76, 4-(4-fluorophenyl)-5-(1-isopropyl-6-oxo-1,6-dihydro-3-pyridazinyl)-1,3-thiazol-2-ylformamide]",230 to 231
12,"CC(C)n1nc(-c2sc(N)nc2-c2ccc(F)cc2)ccc1=O [Example 77, 6-[2-amino-4-(4-fluorophenyl)-1,3-thiazol-5-yl]-2-isopropyl-3(2H)-pyridazinone]",255.5 to 257
13,"CC(C)n1nc(-c2sc(N)nc2-c2ccccc2F)ccc1=O [Example 79, 6-[2-Amino-4-(2-fluorophenyl)-1,3-thiazol-5-yl]-2-isopropyl-3(2H)-pyridazinone]",233 to 235
14,"CC(C)n1nc(-c2sc(N)nc2-c2cccc(F)c2)ccc1=O [Example 80, 6-[2-Amino-4-(3-fluorophenyl)-1,3-thiazol-5-yl]-2-isopropyl-3(2H)-pyridazinone]",237 to 238
15,"CC(C)n1nc(-c2sc(N)nc2-c2cccc(Cl)c2)ccc1=O [Example 81, 6-[2-Amino-4-(3-chlorophenyl)-1,3-thiazol-5-yl]-2-isopropyl-3(2H)-pyridazinone]",235.5 to 237
16,"CC(=O)Nc1nc(-c2ccc(F)cc2)c(-c2ccc(=O)n(C(C)C)n2)s1 [Example 82, N-[4-(4-fluorophenyl)-5-(1-isopropyl-6-oxo-1,6-dihydro-3-pyridazinyl)-1,3-thiazol-2-yl]acetamide]",236 to 237.5
17,"CC(C)n1nc(-c2sc(NC(=O)c3ccccc3)nc2-c2ccc(F)cc2)ccc1=O [Example 83, N-[4-(4-Fluorophenyl)-5-(1-isopropyl-6-oxo-1,6-dihydro-3-pyridazinyl)-1,3-thiazol-2-yl]-benzamide]",202 to 203.5
18,"Nc1nc(-c2ccccc2)c(-c2ccc(=O)[nH]n2)s1 [Example 84, 6-(2-amino-4-phenyl-1,3-thiazol-5-yl)-3(2H)-pyridazinone]",> 250
19,"Cn1nc(-c2sc(N)nc2-c2ccccc2)ccc1=O [Example 85, 6-(2-amino-4-phenyl-1,3-thiazol-5-yl)-2-methyl-3(2H)-pyridazinone]",238 to 241
